According to patent US7705188B2 (Arizona Board of Regents, a body corporate of the State of …, priority 2002, dated 2010):
≈ marks a conversion by molar mass, not a printed value. Like-named read-outs stand apart in the source and are kept apart here.

Assays:
MCF-7 = assay: Cytotoxicity, breast MCF-7; type: cell-based, human; conditions: for GI50: Homo sapiens, MCF7
tubulin [1] = assay: Inhibition of tubulin polymerization; type: biochemical; conditions: for Inhibition of tubulin assembly, in words: direct comparison with 2a and 2c; for IC50: tubulin 10 μM, extent of assembly after 20 min at 30° C., read-out: Inhibition of tubulin Polymerization IC50 (μM) ± SD
Method: (§1) Extent of assembly after 20 min at 30° C. was the parameter measured. The colchicine binding assay was performed as earlier reported.^27 The tubulin concentration was 1.0 μM, the [3H] colchicine concentration was 5.0 μM, and the potential inhibitor concentrations were as indicated. Binding of colchicine was measured following a 10 min incubation at 37° C.

tubulin [2] = assay: Inhibition of [3H]colchicine binding to tubulin; conditions: for Inhibition of colchicine binding % Inhibition, 2 μM inhibitor / Inhibition of colchicine binding % Inhibition, 5 μM inhibitor: tubulin 1.0 μM, [3H]colchicine 5.0 μM, 10 min at 37° C.
Method: as §1

Candida albicans = assay: Antimicrobial broth microdilution, MIC; type: cell-based; conditions: read-out: Minimum inhibitory concentration
Source text: (§2) Stilbene production has been correlated with the resistance of grape leaves to fungal infection.

Cryptococcus neoformans = assay: Antimicrobial broth microdilution, MIC; type: cell-based; conditions: read-out: Minimum inhibitory concentration
Source text: as §2

Enterobacter cloacae = assay: Antimicrobial broth microdilution, MIC; type: cell-based; conditions: read-out: Minimum inhibitory concentration
Source text: as §2

Enterococcus faecalis = assay: Antimicrobial broth microdilution, MIC; type: cell-based; conditions: for MIC: read-out: Minimum inhibitory concentration
Source text: as §2

Escherichla coli = assay: Antimicrobial broth microdilution, MIC; type: cell-based; conditions: read-out: Minimum inhibitory concentration
Source text: as §2

Micrococcus luteus = assay: Antimicrobial broth microdilution, MIC; type: cell-based; conditions: read-out: Minimum inhibitory concentration
Source text: as §2

Neisseria gonorrhoeae = assay: Antimicrobial broth microdilution, MIC; type: cell-based
Source text: as §2

Staphylococcus aureus = assay: Antimicrobial broth microdilution, MIC; type: cell-based; conditions: read-out: Minimum inhibitory concentration
Source text: as §2

[3] = tested on: Stenotrophomonas maltophilia; assay: Antimicrobial broth microdilution, MIC; type: cell-based; conditions: read-out: Minimum inhibitory concentration
Source text: as §2

Streptococcus pneumoniae = assay: Antimicrobial broth microdilution, MIC; type: cell-based; conditions: read-out: Minimum inhibitory concentration
Source text: as §2

[4] = tested on: P-388 and human tumor cell lines; assay: Cytotoxicity, summary over P-388 and human tumor cell lines; type: cell-based
BXPC-3 = assay: Cytotoxicity, pancreas-a BXPC-3; type: cell-based, human
SF-268 = assay: Cytotoxicity, CNS SF-268; type: cell-based, human; conditions: for GI50: Homo sapiens
NCI-H460 = assay: Cytotoxicity, lung-NSC NCI-H460; type: cell-based, human; conditions: for GI50: Homo sapiens
KM201.2 = assay: Cytotoxicity, colon KM201.2; type: cell-based, human; conditions: for GI50: Homo sapiens
DU-145 = assay: Cytotoxicity, prostate DU-145; type: cell-based, human
[5] = tested on: human leukemia HL-60 cell line; conditions: cited from earlier work
bacteria and fungi = assay: Antimicrobial evaluation, summary; type: cell-based
Source text: as §2

[6] = tested on: murine CaNT adenocarcinoma; conditions: six hours after single i.p. injection, 100 mg/kg; cited from earlier work
[7] = Neisseria gonorrhoeae; read-out: Minimum inhibitory concentration
[8] = NCI-H460, read-out: Lung-NSC NCI-H460 GI50, NCI-H460

| Compound | IC50 (tubulin [1]) [µM] | Inhibition of colchicine binding, in words (tubulin [2]) | Inhibition of colchicine binding % Inhibition, 2 μM inhibitor (tubulin [2]) [%] | Inhibition of colchicine binding % Inhibition, 5 μM inhibitor (tubulin [2]) [%] | MIC (Candida albicans) [µg/mL] | MIC (Cryptococcus neoformans) [µg/mL] | MIC (Enterobacter cloacae) [µg/mL] | MIC (Enterococcus faecalis; first line (r12)) [µg/mL] | MIC (Enterococcus faecalis; second line (r15)) [µg/mL] | MIC (Escherichla coli; Escherichla coli) [µg/mL] | MIC (Micrococcus luteus) [µg/mL] | MIC (Neisseria gonorrhoeae; [7]) [µg/mL] | MIC (Staphylococcus aureus) [µg/mL] | MIC [3] [µg/mL] | MIC (Streptococcus pneumoniae) [µg/mL] | Cytotoxicity against cancer cell lines, comparison in words [4] | Pancreas-a BXPC-3 GI50 (BXPC-3) [µg/mL] | CNS SF-268 GI50 (SF-268) [µg/mL] | Prostate DU-145 GI50 (DU-145) [µg/mL] | further results |
| --- | --- | --- | --- | --- | --- | --- | --- | --- | --- | --- | --- | --- | --- | --- | --- | --- | --- | --- | --- | --- |
| COc1ccc(C(=O)c2cc(OC)cc(OC)c2)cc1 [Compound 16a, 3,4′,5-trimethoxybenzophenone] | 2.6 ± 0.3 | least activity in both assays | 47 ± 5 | 69 ± 0.3 | > 64 | > 64 | > 64 | > 64 | > 64 | > 64 | > 64 | 32 (≈ 118 µM) | > 64 | > 64 | > 64 | superior in activity to resveratrol (1) | – | – | – | GI50 (MCF-7): 21.7 µg/mL (≈ 79.7 µM); Inhibition of tubulin assembly, in words (tubulin [1]): somewhat less potent than 2c; Fold less active (cytotoxicity) than compound 4a ([4]; relative to 4a): 10-100 fold; melting point: 90.3 to 91.6 °C |
| COc1ccc(C=Cc2cc(O)cc(O)c2)cc1 [Compound 14k, 3,5-dihydroxy-4′-methoxy-stilbene] | – | – | – | – | > 64 | > 64 | > 64 | > 64 | > 64 | > 64 | > 64 | 16 (≈ 66 µM) | > 64 | > 64 | > 64 | comparable to that of resveratrol | 14.1 | 15.6 | 10.6 | Breast MCF-7 GI50 (MCF-7; MCF-7): 12.7 µg/mL; GI50 (NCI-H460; [8]): 6.4 µg/mL (≈ 26.4 µM); Colon KM201.2 GI50 (KM201.2; KM201.2): 17.7 µg/mL |
| Oc1ccc(/C=C/c2cc(O)cc(O)c2)cc1 [Compound 1, 3,4′,5-trihydroxy-trans-stilbene, reference compound] | – | – | – | – | > 64 | > 64 | > 64 | > 64 | > 64 | > 64 | > 64 | 16 to 32 (≈ 70.1 to 140 µM) | > 64 | > 64 | > 64 | – | – | – | – | Activity against Neisseria gonorrhoeae, in words (Neisseria gonorrhoeae; broth microdilution assays): demonstrated; Apoptosis and Bcl-2 expression [5]: induce apoptosis and decrease expression of Bcl-2 |
| COc1ccc(C=Cc2cc(OC)cc(OC)c2)cc1 [Compound 4a, 3,4′,5-trimethoxystilbene] | 1.8 ± 0.3 | essentially equivalent to 2a | 88 ± 1 | 95 ± 1 | > 64 | > 64 | > 64 | – | – | – | > 64 | – | > 64 | > 64 | > 64 | – | 0.0034 | 0.0044 | 0.0054 | Lung-NSC NCI-H460 GI50 (NCI-H460): 0.0028 µg/mL; Inhibition of tubulin assembly, in words (tubulin [1]): more inhibitory than 2a; MIC (Enterococcus faecalis): > 64 µg/mL; Minimum inhibitory concentration (Enterococcus faecalis; second line (r15)): * (no inhibition at 64 μg/ml); MIC (Escherichla coli): > 64 µg/mL; MIC (Neisseria gonorrhoeae; Neisseria gonorrhoeae, read-out: Minimum inhibitory concentration): > 64 µg/mL |
| COc1cc(C=Cc2ccc(O)cc2)cc(OC)c1 [Compound 14c, 3,5-dimethoxy-4′-hydroxy-stilbene] | 29 ± 9 | – | – | – | 64 (≈ 250 µM) | 16 (≈ 62.4 µM) | > 64 | 32 to 64 (≈ 125 to 250 µM) | > 64 | > 64 | 8 (≈ 31.2 µM) | 8 (≈ 31.2 µM) | 32 (≈ 125 µM) | > 64 | 16 (≈ 62.4 µM) | comparable to that of resveratrol | – | – | – | GI50 (BXPC-3; Homo sapiens, BXPC-3, BXPC-3): 12.6 µg/mL (≈ 49.2 µM); GI50 (MCF-7): 3 µg/mL (≈ 11.7 µM); GI50 (SF-268; SF-268, SF-268, read-out: CNS SF-268 GI50): 2.2 µg/mL (≈ 8.58 µM); GI50 (NCI-H460; NCI-H460, NCI-H460, read-out: Lung-NSC NCI-H460 GI50): 2.8 µg/mL (≈ 10.9 µM); GI50 (KM201.2; KM201.2, read-out: Colon KM201.2 GI50): 11.9 µg/mL (≈ 46.4 µM); GI50 (DU-145; Homo sapiens, DU-145, DU-145): 2.3 µg/mL (≈ 8.97 µM); Fold less active than 4a as inhibitor of tubulin assembly (tubulin [1]; relative to 4a): 16 fold; Antimicrobial activity, in words (bacteria and fungi): most active of the stilbenes and benzophenones tested |
| COc1ccc(/C=C\c2cc(OC)c(OC)c(OC)c2)cc1OP(=O)([O-])[O-].[Na+].[Na+] [Compound 2b, combretastatin A-4 sodium phosphate prodrug] | – | – | – | – | – | – | – | – | – | – | – | – | – | – | – | – | – | – | – | Tumor vascular function shutdown [6]: rapid, irreversible and extensive |
| COc1ccc(/C=C\c2cc(OC)c(OC)c(OC)c2)cc1O [Compound 2a, combretastatin A-4, reference compound] | 2 ± 0.2 | – | 91 | – | – | – | – | – | – | – | – | – | – | – | – | – | 0.39 | >0.01 | 0.0008 | Lung-NSC NCI-H460 GI50 (NCI-H460): 0.0006 µg/mL; Colon KM201.2 GI50 (KM201.2; KM201.2): 0.34 µg/mL |
| COc1ccc(C(=O)c2cc(OC)c(OC)c(OC)c2)cc1O [Compound 2c, phenstatin, reference compound] | 1.1 ± 0.1 | less potent than combretastatin A-4 (2a) | 73 ± 1 | 85 ± 2 | – | – | – | – | – | – | – | – | – | – | – | – | – | – | – | GI50 (SF-268; SF-268, read-out: CNS SF-268 GI50, SF-268): 0.052 µg/mL (≈ 0.163 µM); GI50 (NCI-H460; [8]): 0.0057 µg/mL (≈ 0.0179 µM); GI50 (KM201.2; read-out: Colon KM201.2 GI50, KM201.2): 0.04 µg/mL (≈ 0.126 µM) |
